Assays:
E. coli 25922 (Ecol) = assay: Plate-based disk diffusion tests, sensitive strain; format: cell-based, Escherichia coli; details: blood agar lawn plates, antibiotic disk, overnight at 35° C.
Experimental: (§1) Several nutrient agar plating methods employing antibiotics, other chemicals, and one or more species of bacteria have been devised to study these mechanisms. The most basic of these tests, the disk-diffusion method, employs a single test strain of bacteria which is used to create a uniform layer or lawn when grown. A disk-containing antibiotic is placed on the inoculated plate and the plate is then incubated to grow the lawn. In cases where the strain is sensitive to the antibiotic, a zone of no growth is observed around the disk. The distance from the disk to the edge of this zone is an indicator of the level of resistance to the antibiotic present in the disk, based on how far the antibiotic can diffuse into the nutrient medium. A variation on this test is to employ a second disk or drop of fluid near the antibiotic disk that contains a chemical that can affect the antibiotic response. Differences between the zone in areas near the chemical and away from the chemical can indicate the type of resistance mechanism at work in the test. In this case, the chelating agent ethylenediamine tetraacetic acid (EDTA) (Sigma-Aldrich) can be used to test for the presence of a class of antibiotic resistance enzyme called metallo-beta-lactamase, which is inhibited by EDTA. The positive result for this test is a larger zone of inhibition near the EDTA indicating reduced effectiveness of the enzyme. […]

[1] = test system: Escherichia coli ATCC 25922 (Ecol); assay: Biosensor mixed species diffusion assay (immobilized cells, microscopic detection), growth of sentinel strain; format: cell-based; details: for Mixed species resistance factor diffusion? / Ecol growth in distal site? / Ecol growth in proximal site?: CAZ 16 (16 μg/mL); for Ecol growth in distal site?: distal from Paer; for Ecol growth in proximal site?: proximal to Paer
Experimental: (§2) A mixed species diffusion variation of Hodge test using a biosensor with immobilized cells and microscopic detection was performed using the same bacterial strains. Heavy suspensions of Ecol and Paer were prepared in L-histidine buffer from fresh overnight blood agar plates. Heavy suspensions were diluted in normal saline to produce 0.5 McFarland suspensions, noting the volumes of each suspension required and using the same volumes to produce 10^8 cfu/mL suspensions of each strain in L-histidine. These suspensions were further diluted to create […] and 2×10^5 cfu/mL suspensions for heavy and moderate density working samples. The working samples were then diluted 1:1 in 2 mM L-DOPA for EKC.
(§3) The strains were next introduced to a biosensor for EKC, immobilization, and detection. Paer suspensions were loaded first, placing 5 uL in the exit port side (to maintain the resistant Paer isolate in one half of each channel) of each biosensor flowcell channel to cover one half of the flowcell. Six flowcells were loaded with each concentration. EKC was performed for 5 minutes at 1.5V, and then all flowcells were washed with two aliquots of 160 μL 1 mM L-DOPA (from the entry port). Ecol suspensions were next loaded, introducing 20 μL of cells suspension from the entry port to cover the full flowcell. Six flowcells were loaded with each concentration. EKC was performed for 5 minutes at 1.5V, and all flowcells washed with 160 μL of 1/10 MHB. The manner in which the cells were introduced and captures created a site comprising Ecol cells that were distal from any Paer cells (i.e., on the entry port side of the flowcell), as well as Ecol cells that were proximal to the Paer cells (i.e., on the exit port side of the flowcell).
(§4) Antibiotic media were prepared for immobilization and inhibition testing as follows. […] An immobilization medium source plate was prepared in the detection system and maintained at 45° C. The source plate wells were loaded with 20 μL of the 10× stocks and MHB without antibiotic for growth controls. The sample cassette was placed in the detection system and maintained at 40° C. A 180 uL volume of 0.944% MHA was added to each well of the source plate and mixed, and 100 uL of pre-immobilization immobilizing medium (with an agar concentration of 0.850%) was withdrawn and introduced to a flowcell in accordance with the experimental design. The loaded biosensor was allowed to equilibrate for 5 minutes, and was then removed and cooled for 5 minutes to induce the agar immobilizing agent to change to solid phase. The flowcell ports were then sealed, and growth, imaging, and analysis were performed, with examination of each flowcell for growth of Paer, examination of the distal portion of each flowcell for growth of Ecol in the absence of Paer (distal sensitivity), and examination of the proximal portion of each flowcell for growth of Ecol in the presence of Paer (proximal resistance), indicative of a positive mixed species resistance due to diffusion of metallo-beta-lactamase.
(§5) In order to test for enzyme-mediated cross-species resistance effects, a method for was devised to test a sensitive strain, Escherichia coli ATCC 25922 (Ecol), in the presence of a resistant strain, Pseudomonas aeruginosa IHMA 519749 (Paer) in the immobilized format. The method involved first immobilizing the resistant strain on the surface of a portion of each test flowcell of the cassette (approximately half) and then immobilizing the sensitive (sentinel) strain on the surface of the full flowcell including the area containing the resistant strain. This strategy provides an internal control for treatment effects on the sentinel strain in an area far from the resistant strain along with an area where close-field effects can be observed in the same flowcell. […]

[2] = test system: P. aeruginosa 519749 (Paer); assay: Plate-based disk diffusion tests, resistant strain; format: cell-based, Pseudomonas aeruginosa; details: blood agar lawn plates, antibiotic disk, overnight at 35° C.
Experimental: as §1

[3] = test system: Pseudomonas aeruginosa IHMA 519749 (Paer); assay: Biosensor mixed species diffusion assay (immobilized cells, microscopic detection), growth of resistant strain; format: cell-based; details: for Paer growth?: CAZ 16 (16 μg/mL), MHA 0.850% agar, 4 hours
Experimental: as §2, §3, §4, §5

[4] = Flowcell 5, Ecol 10^6/Paer 10^6
[5] = Flowcell 5, Ecol 10^6/Paer 10^6, 4 hours
[6] = Flowcell 6, Ecol 10^6/Paer 10^5
[7] = Flowcell 6, Ecol 10^6/Paer 10^5, 4 hours
[8] = Flowcell 7, Ecol 10^5/Paer 10^6
[9] = Flowcell 7, Ecol 10^5/Paer 10^6, 4 hours
[10] = Flowcell 8, Ecol 10^5/Paer 10^5
[11] = Flowcell 8, Ecol 10^5/Paer 10^5, 4 hours

SMILES: CC(C)(O/N=C(\C(=O)N[C@@H]1C(=O)N2C(C(=O)[O-])=C(C[n+]3ccccc3)CS[C@H]12)c1csc(N)n1)C(=O)O [CAZ, ceftazidime]
- Susceptibility of Ecol strain in plating-based tests (E. coli 25922 (Ecol)): sensitive
- Ecol growth and morphology under antibiotic (time-lapse images) ([1]; CAZ at 16 μg/mL, immobilized in MHA, 4 hours): slight growth or elongation of the single cell with later fading and in many colonies complete lysis
- Mixed species resistance factor diffusion? [1, 4]: No
- Ecol growth in distal site? [1, 5]: No
- Ecol growth in proximal site? [1, 5]: No
- Mixed species resistance factor diffusion? [1, 6]: No
- Ecol growth in distal site? [1, 7]: No
- Ecol growth in proximal site? [1, 7]: No
- Mixed species resistance factor diffusion? [1, 8]: No
- Ecol growth in distal site? [1, 9]: No
- Ecol growth in proximal site? [1, 9]: No
- Mixed species resistance factor diffusion? [1, 10]: No
- Ecol growth in distal site? [1, 11]: No
- Ecol growth in proximal site? [1, 11]: No
- Resistance of Paer isolate in plating-based tests [2]: high resistance
- Zone of inhibition, Paer isolate [2]: no zone of inhibition observed
- Paer growth morphology and rate under antibiotic vs growth control ([3]; CAZ at 16 μg/mL, immobilized in MHA, proximal site): same morphology and growth rate as the growth control condition
- Paer growth? [3, 4]: Yes
- Paer growth? [3, 6]: Yes
- Paer growth? [3, 8]: Yes
- Paer growth? [3, 10]: Yes

Reference: US20150337351A1, “METHODS OF MICROORGANISM IMMOBILIZATION” (priority 2014, published 2015)
